pIC50: −log10 of the molar value.
Experiments:
[1] = system: Cryptococcus neoformans ATCC 90113; experiment: Antimicrobial microdilution assay against Cryptococcus neoformans (modified CLSI/NCCLS, optical density); format: cell-based; settings: for X more potent than Amphotericin B: C. neoformans, ratio of molar IC50 to Amphotericin B; for C. neoformans IC50 / pIC50: in vitro, C. neoformans ATCC 90113; for pIC50: read-out: C. neoformans IC50 (mol/L)
How it was run: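 Broth microdilution (modified CLSI) in RPMI pH 6.0, samples serially diluted in 20% DMSO/saline and tested in duplicate, growth followed by OD630 before and after incubation. MFC is the lowest concentration giving no growth when 5 μL from clear wells is plated on agar.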

[2] = system: Staphylococcus aureus ATCC 29213; experiment: Antibacterial broth dilution assay against S. aureus (modified CLSI); format: cell-based; settings: for S. aureus IC50 / pIC50: in vitro; for pIC50: converted with molecular weight; for X more potent than ciprofloxacen: molar IC50 ratio versus ciprofloxacen
Procedure: (§1) General Experimental Procedures. All organisms were obtained from the American Type Culture Collection (Manassas, VA) and include the fungi Candida albicans ATCC 90028, C. glabrata ATCC 90030, C. krusei ATCC 6258, and Cryptococcus neoformans ATCC 90113, and the bacteria Staphylococcus aureus ATCC 29213 and methicillin-resistant S. aureus ATCC 33591 (MRS). All organisms were tested using modified versions of the CLSI (formerly NCCLS) methods. For all organisms, optical density was used to monitor growth (NCCLS, Reference Method for Broth Dilution Antifungal Susceptibility Testing of Yeasts; Approved Standard M27-A2. National Committee on Clinical Laboratory Standards, 2002 22 (15); and NCCLS, Methods for Dilution Antimicrobial Susceptibility Tests for Bacteria that Grow Aerobically; Approved Standard, Seventh Edition M7-A7. National Committee on Clinical Laboratory Standards, 2006. 26(2)).
(§2) Samples (dissolved in DMSO) were serially-diluted in 20% DMSO/saline and transferred (10 μL) in duplicate to 96 well flat bottom microplates. Inocula were prepared by correcting the OD630 of microbe suspensions in incubation broth [RPMI 1640/0.2% dextrose/0.03% glutamine/MOPS @ pH 6.0 (Cellgro) for Candida spp., Sabouraud Dextrose for C. neoformans, and cation-adjusted Mueller-Hinton (Difco) @ pH 7.3 for Staphylococcus spp. to afford an assay volume of […] and final target inocula of: Candida spp. and C. neoformans: 1.5×10^3, and Staphylococcus spp.: 5.0×10^5 CFU/ml. Final sample test concentrations were 1/100th the DMSO stock concentration. […] All organisms were read at either 530 nm using the Biotek Powerwave XS plate reader (Bio-Tek Instruments, Vermont) prior to and after incubation: Candida spp. at 35° C. for 46-50 h, Staphylococcus spp. at 35° C. for 16-20 h, and C. neoformans at 35° C. for 70-74 h. IC50s (concentrations that afford 50% inhibition relative to controls) were calculated using XLfit 4.2 software (IDBS, Alameda, CA) using fit model 201. The MIC is defined as the lowest test concentration that allows no detectable growth. Minimum fungicidal or bactericidal concentrations were determined by removing 5 μl from each clear (or blue) well, transferring to fresh media, and incubating as previously mentioned. The MFC/MBC is defined as the lowest test concentration that kills the organism (allows no growth).
(§3) Primary Analysis. Samples were tested in duplicate at one test concentration (50 μg/mL), and percent inhibitions were calculated relative to blank and growth controls. Samples showing 50% inhibition in at least one test organism were selected for dose response (Secondary) studies.
(§4) Secondary Analysis. Extracts from the Primary Assay, and first-run pure compounds and column fractions were tested in duplicate at 3 test concentrations (5-fold dilutions). Samples dissolved to 20 mg/mL in DMSO were tested at 200, 40, and 8 μg/mL. Samples dissolved to 2 mg/mL in DMSO were tested at 20, 4, and 0.8 μg/mL.

[3] = system: L. donovani promastigotes; experiment: Antileishmanial Alamar Blue assay on promastigotes; format: cell-based, Leishmania donovani; settings: for X more potent than Pentamidine: L. donovani, ratio of molar IC50 to Pentamidine; for L. donovani IC50 / pIC50: promastigotes, 48 hours, Alamar Blue; for pIC50: read-out: L. donavani IC50
How it was run: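 L. donovani promastigotes in RPMI 1640 with 10% FCS, from 3-day culture, were set at 5×10^5/mL and exposed to compound (50-3.1 μg/mL) for 48 hours at 26° C. Growth read by Alamar Blue fluorescence (ex 544/em 590 nm); IC50 from percent growth versus concentration.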

[4] = system: methicillin-resistant S. aureus ATCC 33591 (MRS); experiment: Antibacterial broth dilution assay against MRSA (modified CLSI); format: cell-based, Staphylococcus aureus; settings: for MRSa IC50 / pIC50: in vitro; for pIC50: converted with molecular weight; for X more potent than ciprofloxacen: molar IC50 ratio versus ciprofloxacen
Procedure: as §1, §2, §3, §4

C. krusei ATCC 6258 = experiment: Antifungal broth dilution assay against C. krusei (modified CLSI); format: cell-based, Candida krusei; settings: for X more potent than Amphotericin B: C. krusei, ratio of molar IC50 to amphotericin B; for C. krusei IC50 / pIC50: in vitro; for pIC50: read-out: C. krusei IC50 (mol/L)
Procedure: as §1, §2, §3, §4

C. glabrata ATCC 90030 = experiment: Antifungal broth dilution assay against C. glabrata (modified CLSI); format: cell-based, Candida glabrata; settings: for C. glabrata IC50 / pIC50: in vitro; for pIC50: converted with molecular weight; for X more potent than Amphotericin B: molar IC50 ratio versus amphotericin B
How it was run: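 Modified CLSI broth microdilution with OD monitoring before and after incubation at 35 °C: Candida in RPMI 1640/MOPS pH 6.0, 1.5×10^3 CFU/ml, 46-50 h; Staphylococcus in cation-adjusted Mueller-Hinton pH 7.3, 5.0×10^5 CFU/ml, 16-20 h. IC50 from curve fit; MIC is the lowest concentration with no growth; MFC/MBC from subculture.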

Molecule	X more potent than Amphotericin B [1]	C. neoformans IC50 [1]	pIC50 [1]	S. aureus IC50 [2]	pIC50 [2]	X more potent than ciprofloxacen [2]	X more potent than Pentamidine [3]	L. donovani IC50 [3]	pIC50 [3]	MRSa IC50 [4]	pIC50 [4]	X more potent than ciprofloxacen [4]	X more potent than Amphotericin B (C. krusei ATCC 6258)	C. krusei IC50 (C. krusei ATCC 6258)	pIC50 (C. krusei ATCC 6258)	C. glabrata IC50 (C. glabrata ATCC 90030)	pIC50 (C. glabrata ATCC 90030)	X more potent than Amphotericin B (C. glabrata ATCC 90030)
[Ni2(m-CB-Homocyclens)(OAc)1.9][PF6]2.1 [CDG038]	0.09	3.010 µg/mL	5.56	9.58 µg/mL	5.06	0.03	0.29	19.92 µg/mL	4.74	9.080 µg/mL	5.08	0.03						
[Ni2(m-cyclam-homocyclen)(OAc)2][PF6]2•H2O [AW050]	0.25	1.040 µg/mL	6.03	8.540 µg/mL	5.11	0.04	0.36	16.50 µg/mL	4.83	4.650 µg/mL	5.38	0.05						
[Cu(Bn2PBCyclam)(OAc)]PF6•5H2O [BME10B]	0.01	13.810 µg/mL	4.73	5.670 µg/mL	5.11	0.04	1.07	3.64 µg/mL	5.30	5.350 µg/mL	5.14	0.03						
CC(=O)[O-].F[P-](F)(F)(F)(F)F.[Ni+2].c1ccc(CN2CCN3CCCN(CC2)CCN(Cc2ccccc2)CC3)cc1 [AW039, [Ni(Bn2PBCyclen)(C2H3O2)]PF6]	0.02	7.640 µg/mL	4.93	4.73 µg/mL	5.14	0.04	0.14	24.41 µg/mL	4.43				0.17	5.610 µg/mL	5.07	5.030 µg/mL	5.11	0.18
[Fe(Bn2PBCyclen)(C2H3O2)]PF6•1.2NH4PF6 [AW037]	0.02	8.400 µg/mL	5.00	4.940 µg/mL	5.23	0.05	0.17	26.63 µg/mL	4.50	9.480 µg/mL	4.95	0.02						
c1cc(CN2CCN3CCNCCN(CC3)CC2)ccc1CN1CCN2CCNCCN(CC2)CC1 [JGL19, p-CB-H2Bcyclens]	0.20	0.590 µg/mL	5.93	2.900 µg/mL	5.24	0.05	0.31	8.54 µg/mL	4.77	1.060 µg/mL	5.67	0.10						
[Mn2(m-cyclam-homocyclen)][MnCl4]2•12H2O [AW047]	0.08	3.770 µg/mL	5.53	5.380 µg/mL	5.38	0.07				7.850 µg/mL	5.22	0.03						
[Co2(m-cyclam-homocyclen)(OAc)2][PF6]2 [AW049]	1.67	0.156 µg/mL	6.85	5.600 µg/mL	5.29	0.05	0.34	16.93 µg/mL	4.81				0.25	6.520 µg/mL	5.23	1.217 µg/mL	5.95	1.28
c1ccc(CN2CCN3CCN(CC2)CCN(Cc2ccccc2)CC3)cc1 [ANCl4]				8.810 µg/mL	4.63	0.01				8.570 µg/mL	4.65	0.01						
Clc1cc(CN2CCNCCN3CCN(CC3)CC2)cc(Cl)n1 [OB99, (dcp)1-SB-cyclen]	0.28	0.310 µg/mL	6.06	7.520 µg/mL	4.68	0.01	0.09	20.87 µg/mL	4.23				0.09	5.660 µg/mL	4.80			
CC(=O)[O-].F[P-](F)(F)(F)(F)F.[Co+2].c1ccc(CN2CCCN3CCCN(CCCN(Cc4ccccc4)CC3)CC2)cc1 [DJD21, [Co(Bn2PBCyclam)(OAc)]PF6]	0.05	3.510 µg/mL	5.29	3.590 µg/mL	5.28	0.05	0.26	14.12 µg/mL	4.68	3.710 µg/mL	5.27	0.04						
CC(=O)[O-].F[P-](F)(F)(F)(F)F.[Zn+2].c1ccc(CN2CCCN3CCCN(CCCN(Cc4ccccc4)CC3)CC2)cc1 [DJD23, [Zn(Bn2PBCyclam)(OAc)]PF6]	0.08	1.990 µg/mL		6.530 µg/mL		0.03	0.85	4.32 µg/mL		3.210 µg/mL		0.05						
c1ccc(CN2CCCN3CCCN(CCCN(Cc4ccccc4)CC3)CC2)cc1 [SLK09, Bn2PBCyclam]	0.11	0.910 µg/mL	5.66	2.270 µg/mL	5.27	0.05	0.87	2.56 µg/mL	5.22	4.960 µg/mL	4.93	0.02						

From patent US12139481B2, “Compositions comprising macrocycle derivatives incorporating bridged macrocycles and methods of producing and using same” (Southwestern Oklahoma State University, priority 2015, dated 2024)
